{"source": "patent US6160008A", "about": "“Pharmaceutical compositions comprising S-alkylisothiouronium derivatives” (priority 1996, dated 2000)", "key": {"[1]": {"tested_on": "increased oxygen pressure", "conditions": "cited from earlier work"}, "[2]": {"tested_on": "mice exposed to an oxygen pressure of 3 atm", "assay": "Survival under oxygen pressure of 3 atm, mice (Table 15)", "type": "in vivo, F1 (CBAx57B1)", "conditions": "mice, 3 atm, 5 hours", "experimental": "Animals were exposed to oxygen under increased pressure in a hyperbaric chamber <<Mana-2≤≤ for treatment of infants above 1 year, which was adjusted for the experiments on animals. The hyperbaric chamber design permitted to create excessive pressure up to 3 atm and to observe animal behavior from outside.\nThe experiments were performed on males of F1 (CBAx57B1) mice line and on males of Wistar rat line. Animals were placed in the hyperbaric chamber in plastic boxes and the atmospheric air was replaced by oxygen. The period of compression-decompression was 10 minutes. The exposure of the animals to an oxygen pressure of 3 atm during a period of 2 hours caused only some increase in their motion activity. Further staying of rats and mice in those conditions led to a decrease in the motion activity, to asphyxia with short periods of excitement and cramps. The death of some animals was registered after 2.5-3 hours, 50% after 4 hours, and 75% of mice and 100% of rats were dead after 5 hours.\nWhen the influence of Difetur and Etyron was studied, the animals were exposed to an oxygen pressure of 3 atm during 5 hours if not otherwise specified. Preparations were injected 5-10 minutes before the session."}, "arterial blood pressure": {"tested_on": "arterial blood pressure", "assay": "Influence of single intravenous injection on arterial blood pressure, heart rate and respiratory rate in anesthetized cats (Table 1, FIGS. 1-10)", "type": "in vivo", "conditions": "5 mg/kg i.v.; for Hypertensive activity (increase of SAP): given as \"> SAP by\"", "experimental": "Experiments were performed on 52 anesthetized (intraperitoneally with 45 mg/kg of sodium pentobarbital) cats of both genders with body mass of 2.8-4.2 kg. Arterial pressure was measured by a mercury pressure gauge; measurements were also performed by ECG. Simultaneously, the respiratory frequency was registered. The hypertensive effect was determined as percent increase relative to the initial level of systolic arterial pressure (SAP). The duration of observation was 1-3 hours; the heart rate (HR) was calculated on the basis of ECG."}, "[3]": {"tested_on": "acute arterial hypotension, caused by the hexamethonium administration", "assay": "Acute arterial hypotension caused by hexamethonium (Table 5)", "type": "in vivo, cats", "experimental": "The influence of S-ethylisothiouronium diethylphosphate on the background of arterial hypotension caused by a known ganglion blocker-hexamethonium has been studied in cats. Hexamethonium was injected intra- venously at a dose of 10 mg/kg. Vagus and schiatic nerve stimulation was carried out by electrical pulsator with the above-threshold rectangular pulse current having a duration of 1 msec, irritation time of 10 sec, and frequency of 20 pulses/sec (peripheral section of the vagus nerve), and frequency of 300 pulses/sec (central end of the schiatic nerve)."}, "[4]": {"tested_on": "acute arterial hypotension, caused by prazosin", "assay": "Acute arterial hypotension caused by prazosin (Table 3)", "type": "in vivo, cats", "conditions": "prazosin alone 1 mg/kg i.v.", "experimental": "It was of interest to study the influence of S-ethylisothiouronium diethylphosphate the in case of hypotension caused by the injection of a known α1-adreno blocker, namely prazosin. Prazosin was injected singly intravenously at a dose of 1 mg/kg."}, "α1-adrenoreceptors": {"tested_on": "α1-adrenoreceptors", "conditions": "cited from earlier work"}, "[5]": {"conditions": "listed as S-isopropylisothiuronium metaphosphate"}, "[6]": {"conditions": "listed as S-isopropylisothiuronium isopropylphosphite"}, "[7]": {"conditions": "hexamethonium alone 10 mg/kg i.v., 2nd min"}, "[8]": {"conditions": "listed as S-isobutylisothiuronium isobutylphosphate"}, "[9]": {"conditions": "listed as S-methylisothiuronium dimethylphosphate"}, "[10]": {"conditions": "listed as S-ethylisothiuronium methylphosphate"}}, "note": "“Also recorded” adds a separate entry of the source."}
{"compound": "Br.CCSC(=N)N", "note": "[Etyron, S-ethylisothiouronium bromide, reference compound]", "values": [{"measurement": "Protective activity in words", "setting": "[1]", "result": "protective activity under increased oxygen pressure"}, {"measurement": "Number of survived animals", "setting": "[2]; 10 mg/kg", "result": 70, "unit": "%"}, {"measurement": "Number of survived animals", "setting": "[2]; 20 mg/kg", "result": 50, "unit": "%"}]}
{"compound": "CC(C)SC(=N)N", "note": "[S-isopropylisothiouronium metaphosphate]", "values": [{"measurement": "Duration of effect", "setting": "arterial blood pressure", "result": "≥ 2", "unit": "h"}, {"measurement": "Hypertensive effect in words", "setting": "arterial blood pressure", "result": "slowly increases SAP"}, {"measurement": "RR (influence on respiratory rate)", "setting": "arterial blood pressure", "result": "does not influence RR"}, {"measurement": "Time to achieve maximum effect", "setting": "arterial blood pressure", "result": 15, "unit": "min"}, {"measurement": "Hypertensive activity (increase of SAP)", "setting": "arterial blood pressure; [5]", "result": 27, "unit": "mm Hg"}, {"measurement": "Duration of effect", "setting": "arterial blood pressure; [5]", "result": 2, "unit": "h"}, {"measurement": "Hypertensive activity, % (increase relative to the initial level of SAP)", "setting": "arterial blood pressure; [5]", "result": 20.3, "unit": "%"}, {"measurement": "Influence on HR", "setting": "arterial blood pressure; [5]", "result": "Bradycardia"}, {"measurement": "RR (influence on respiratory rate)", "setting": "arterial blood pressure; [5]", "result": "Increases"}, {"measurement": "Time to achieve maximum effect", "setting": "arterial blood pressure; [5]", "result": 15, "unit": "min"}]}
{"compound": "CC(C)SC(=N)N", "note": "[S-isopropylisothiouronium isopropylphosphite]", "values": [{"measurement": "Duration of effect", "setting": "arterial blood pressure", "result": "at least 2 hour"}, {"measurement": "Hypertensive activity, % (increase relative to the initial level of SAP)", "setting": "arterial blood pressure", "result": "~30", "unit": "%"}, {"measurement": "Hypertensive effect in words", "setting": "arterial blood pressure", "result": "one of the most active substances"}, {"measurement": "Influence on HR", "setting": "arterial blood pressure", "result": "Transient bradycardia"}, {"measurement": "RR (influence on respiratory rate)", "setting": "arterial blood pressure", "result": "does not influence RR"}, {"measurement": "Time to achieve maximum effect", "setting": "arterial blood pressure", "result": "second minute"}, {"measurement": "Hypertensive activity (increase of SAP)", "setting": "arterial blood pressure; [6]", "result": 40, "unit": "mm Hg"}, {"measurement": "Duration of effect", "setting": "arterial blood pressure; [6]", "result": 2, "unit": "h"}, {"measurement": "Hypertensive activity, % (increase relative to the initial level of SAP)", "setting": "arterial blood pressure; [6]", "result": 28.8, "unit": "%"}, {"measurement": "Influence on HR", "setting": "arterial blood pressure; [6]", "result": "Bradycardia"}, {"measurement": "RR (influence on respiratory rate)", "setting": "arterial blood pressure; [6]", "result": "No influence"}, {"measurement": "Time to achieve maximum effect", "setting": "arterial blood pressure; [6]", "result": 2, "unit": "min"}]}
{"compound": "C[N+](C)(C)CCCCCC[N+](C)(C)C", "note": "[hexamethonium, reference compound]", "values": [{"measurement": "AP after hexonium injection", "setting": "[3]; [7]", "result": "91.0 ± 10.0", "unit": "mm Hg"}, {"measurement": "HF after hexonium injection", "setting": "[3]; [7]", "result": "137.6 ± 13.4", "unit": "per min."}, {"measurement": "AP decrease", "setting": "[3]; hexamethonium alone, 2 minutes", "result": 46, "unit": "%"}]}
{"compound": "CC(C)CSC(=N)N", "note": "[S-isobutylisothiouronium isobutylphosphite]", "values": [{"measurement": "Duration of effect", "setting": "arterial blood pressure", "result": "about 2 hour"}, {"measurement": "Hypertensive activity, % (increase relative to the initial level of SAP)", "setting": "arterial blood pressure", "result": 14.8, "unit": "%"}, {"measurement": "Hypertensive effect in words", "setting": "arterial blood pressure", "result": "moderate hypertensive effect"}, {"measurement": "Influence on HR", "setting": "arterial blood pressure", "result": "increasing HR"}, {"measurement": "RR (influence on respiratory rate)", "setting": "arterial blood pressure", "result": "increasing HR and RR"}, {"measurement": "Time to achieve maximum effect", "setting": "arterial blood pressure", "result": 2, "unit": "min"}, {"measurement": "Hypertensive activity (increase of SAP)", "setting": "arterial blood pressure", "result": 22.6, "unit": "mm Hg"}, {"measurement": "Duration of effect", "setting": "arterial blood pressure; [8]", "result": 2, "unit": "h"}, {"measurement": "RR (influence on respiratory rate)", "setting": "arterial blood pressure; [8]", "result": "Increases"}]}
{"compound": "COc1cc2nc(N3CCN(C(=O)c4ccco4)CC3)nc(N)c2cc1OC", "note": "[prazosin, reference compound]", "values": [{"measurement": "AP after prazosin", "setting": "[4]; 5th min", "result": "106.3 ± 2.4", "unit": "mm Hg"}, {"measurement": "HF after prazosin", "setting": "[4]; 5th min", "result": "156.8 ± 9.0", "unit": "per min."}, {"measurement": "Respiratory contraction frequency after prazosin", "setting": "[4]; 5th min", "result": "13.6 ± 2.9", "unit": "min⁻¹"}, {"measurement": "AP decrease", "setting": "[4]; 5th minute", "result": 51, "unit": "mm Hg"}]}
{"compound": "CCCCSC(=N)N", "note": "[S-butylisothiouronium dibutylphosphate, S-butylisothiouronium di-butylphosphate]", "values": [{"measurement": "Duration of effect", "setting": "arterial blood pressure", "result": 1, "unit": "h"}, {"measurement": "Hypertensive activity, % (increase relative to the initial level of SAP)", "setting": "arterial blood pressure", "result": 5.6, "unit": "%"}, {"measurement": "Hypertensive effect in words", "setting": "arterial blood pressure", "result": "slightly increases arterial blood pressure"}, {"measurement": "RR (influence on respiratory rate)", "setting": "arterial blood pressure", "result": "No influence"}, {"measurement": "Time to achieve maximum effect", "setting": "arterial blood pressure", "result": 30, "unit": "min"}, {"measurement": "Hypertensive activity (increase of SAP)", "setting": "arterial blood pressure", "result": 7, "unit": "mm Hg"}, {"measurement": "Duration of effect", "setting": "arterial blood pressure; listed as S-butylisothiuronium dibutylphosphate", "result": "up to 1 hour"}]}
{"compound": "CNCC(O)c1cccc(O)c1.Cl", "note": "(centres unmarked) [Mezaton, 1-(m-hydroxyphenyl)-2-methylaminoethanol hydrochloride]", "values": [{"measurement": "Pharmacological action in words", "setting": "α1-adrenoreceptors; in vivo, hydrochloride", "result": "selectively stimulates α1-adrenoreceptors; also recorded: practically does not have cardiostimulating effect"}, {"measurement": "Duration of anti-hypotensive effect", "setting": "α1-adrenoreceptors; single intravascular injection", "result": "approximately 20 minutes"}]}
{"compound": "CSC(=N)N", "note": "[S-methylisothiouronium dimethylphosphate]", "values": [{"measurement": "Duration of effect", "setting": "arterial blood pressure", "result": 1.5, "unit": "h"}, {"measurement": "Hypertensive activity, % (increase relative to the initial level of SAP)", "setting": "arterial blood pressure", "result": "~30", "unit": "%"}, {"measurement": "Hypertensive activity (increase of SAP)", "setting": "arterial blood pressure; [9]", "result": 27.5, "unit": "mm Hg"}, {"measurement": "Duration of effect", "setting": "arterial blood pressure; [9]", "result": 1.5, "unit": "h"}, {"measurement": "Hypertensive activity, % (increase relative to the initial level of SAP)", "setting": "arterial blood pressure; [9]", "result": 20.8, "unit": "%"}]}
{"compound": "CCSC(=N)N", "note": "[S-ethylisothiouronium metaphosphate]", "values": [{"measurement": "Duration of effect", "setting": "arterial blood pressure", "result": 1.5, "unit": "h"}, {"measurement": "Hypertensive activity, % (increase relative to the initial level of SAP)", "setting": "arterial blood pressure", "result": 15, "unit": "%"}, {"measurement": "RR (influence on respiratory rate)", "setting": "arterial blood pressure", "result": "does not influence RR"}, {"measurement": "Time to achieve maximum effect", "setting": "arterial blood pressure", "result": 2, "unit": "min"}, {"measurement": "Hypertensive activity (increase of SAP)", "setting": "arterial blood pressure", "result": 25, "unit": "mm Hg"}, {"measurement": "Hypertensive activity (increase of SAP)", "setting": "arterial blood pressure; [10]", "result": 25, "unit": "mm Hg"}, {"measurement": "Duration of effect", "setting": "arterial blood pressure; [10]", "result": "up to 1 hour"}, {"measurement": "Hypertensive activity, % (increase relative to the initial level of SAP)", "setting": "arterial blood pressure; [10]", "result": 14.8, "unit": "%"}, {"measurement": "Influence on HR", "setting": "arterial blood pressure; [10]", "result": "Bradycardia"}, {"measurement": "RR (influence on respiratory rate)", "setting": "arterial blood pressure; [10]", "result": "No influence"}]}
